According to patent US5369113A, “Certain 2,3-diphenyl-2-(1,2,4-oxadiazol-5-yl)tropanes useful as dopamide reuptake inhibitors” (NeuroSearch A/S, priority 1992, dated 1994):

How the values were obtained:
dopamine release = details: background statement; cited from earlier work
[1] = at every relevant dosing level tested
Source text: The low intensity behavioural effects are here included into the locomotor and rearing syndrome.
The high intensity syndrome of stereotypy is here considered, if the behavioural repertoire of the rat becomes strongly restricted in variation and consists of the continuous repetition of one or a few items of behaviour.
The syndrome of stereotyped sniffing behaviour is thus performed continuously on only a small restricted area of the cage. […] During this stage of high intensity stereotypy all normal behavioural elements are absent including behaviour such as eating, drinking, grooming and normal explorative investigation of the environment. […] The rats are here usually sitting in a typical crouched posture in a corner of the cage. Backward locomotion may occasionally be observed.
The following rating scale is used for the high intensity stereotypy on the condition that the behavioural syndromes are as described above:
+=only stereotyped sniffing
++=stereotyped sniffing and episodic licking
+++=Continuous licking and/or biting gnawing

For `COC(=O)[C@H]1[C@@H](OC(=O)c2ccccc2)C[C@@H]2CC[C@H]1N2C` [cocaine], the dopamine releasing properties (dopamine release) is listed as “strong dopamine releasing properties”.
For `COC(=O)[C@@H]1[C@@H](c2ccc(F)cc2)C[C@@H]2CC[C@H]1N2C` [trans isomer of Win 35,428, (1R,2R,3S)-2-carbomethoxy-3-(4-fluorophenyl)tropane], the “side effects as measured by abnormal stereotyped behaviour” value [1] was “essentially or totally devoid of side effects”.
